From patent publication US12344599B2, “Prodigiosin analogs and methods of use” (Institute For Cancer Research, priority 2016, dated 2025)

Columns and labels:
[1] = system: γ-H2AX in HT29 and SW480 cells; assay: γ-H2AX DNA damage marker, western blot and immunofluorescence staining; format: cell-based, human
Procedure: After treatment, protein lysates were collected for Western blot analysis. A total of […] of protein was used for SDS-PAGE. After primary and secondary antibody incubations, the signal was detected by a chemiluminescence detection kit, imaged by Syngene (Imgen Technologies). Antibodies for PUMA (for IHC), p53 (Santa Cruz Biotechnology), caspase 8, cleaved caspase 8, caspase 9, caspase 3, cleavage PARP, eIF2α, p-eIF2α (Ser51), CHOP, ATF4, DR5, FOXO3a, p-FOXO3a (Ser253), NF-κB p65, p-NF-κB p65 (Ser536), c-Jun, p-c-Jun (Ser63), JNK, p-JNK (Thr183/Tyr185), PUMA (for WB), c-Myc, phosphor-S62-cMyc (Cell Signaling Technology), Noxa, p21 (Calbiochem), p73 (Bethyl laboratories Inc), Ran (BD Biosciences), […] (Sigma).
A total of 5×10^4 cells were seeded in each well of 8-well chamber slides. After treatment, cells were fixed and permeabilized by methanol:acetone (1:1) for 20 minutes at −20° C. Fixed cells were blocked by 2% BSA for 1 hour, followed by primary antibody incubation for 1 hours and Cy3-conjuated secondary antibody incubation for 1 hour at room temperature. After washing, cells were stained with DAPI for 10 minutes at room temperature. Cells were mounted, and examined by fluorescence microscopy.
DNA damage induces the p53 pathway and leads to cell apoptosis. To study whether the p53 pathway restoration by compound PG3-Oc is due to DNA damage, the uptake and localization of PG3-Oc was investigated in cells. PG3-Oc and prodigiosin are red fluorescent compounds, and their localization in live cells can be monitored by fluorescence microscopy. PG3-Oc and prodigiosin rapidly entered cells within 2 hours of incubation and remained in the cytosol at the 8-hour time point in HT29 and SW480 cells (FIG. 46). […] Baldino, et al. reported that prodigiosin localized to the cytoplasm, but not within the nucleus, and no γ-H2AX signal was detected in A549 cancer cells (Baldino et al., Bioorg Med Chem Lett, 2006, 16, 701-704). […]

[2] = system: ATF4 and CHOP in HCT116 p53−/− cells; assay: Western blot of ATF4 and CHOP, HCT116 p53−/−; format: cell-based, human
Procedure: • 1) Cell lines: HT29, SW480, DLD-1, HCT116, and p53-null HCT116 cells, H1975, MDA-MD-231, U251, FaDu, CAL-27, PANC-1, Aspc-1, and MRC5 were obtained from the ATCC and cultured as recommended. Cells were regularly authenticated by bioluminescence, growth, and morphologic observation. The cells were routinely examined for Mycoplasma and all cell lines underwent STR authentication. • 2) Western blotting: After treatment, protein lysates were collected for Western blot analysis. 15 μg of protein was used for SDS-PAGE. After primary and secondary antibody incubations, the signal was detected by chemiluminescent detection kit, imaged by Syngene (Imgen Technologies). […] The cell viability was assessed by CellTiterGlo bioluminescent cell proliferation assay (Promega), following the manufacturer's protocol. Bioluminescence imaging was measured using the IVIS imager. Percentage of cell viability (mean±SEM) at each dose was calculated against the respective DMSO control. The IC50 values were determined from the sigmoidal dose-response curves using GraphPad Prims4. • 4) Caspase activity assay: Cells were seeded in 96-well plate (1×10^4 cells/well). […] The caspase 3/7 activity was assessed by Caspase-Glo® 3/7 Assay kit (Promega), following the manufacturer's protocol. Bioluminescence imaging was measured using the IVIS imager. […]

CCCCCCCCOC(=O)CCc1c(C)[nH]c(/C=C2\N=C(c3ccc[nH]3)C=C2OC)c1C [PG3-Oc, Octyl (Z)-3-(5-((4′-methoxy-1H,5′H-[2,2′-bipyrrol]-5′-ylidene)methyl)-2,4-dimethyl-1H-pyrrol-3-yl)propanoate]
induction of 65-H2AX (DNA damage marker) / foci formation [1]: did not induce
concentration at which induction of ATF4 and CHOP occurred [2]: 1.25 µM
